Experimental findings from article PMC6264117, “Label-Free Time-Gated Luminescent Detection Method for the Nucleotides with Varying Phosphate Content” (Sensors (Basel, Switzerland), 2018) are described below.

For the experiment, the target named is T1, K-Ras (Homo sapiens, UniProt P01116).
T1 construct: gene KRAS; res; 2-188; with SOS^cat (res. 564-1049); p120GAP (res. 714-1047) in the cycling assay
Briefly: Label-free Tb(III) luminescence GTPase cycling assay (Probe […]); confirmed by QRET and by SOS^cat nucleotide exchange assays (IC50 […]). Format: biochemical.

T1 sequence (Q07889 564-1049): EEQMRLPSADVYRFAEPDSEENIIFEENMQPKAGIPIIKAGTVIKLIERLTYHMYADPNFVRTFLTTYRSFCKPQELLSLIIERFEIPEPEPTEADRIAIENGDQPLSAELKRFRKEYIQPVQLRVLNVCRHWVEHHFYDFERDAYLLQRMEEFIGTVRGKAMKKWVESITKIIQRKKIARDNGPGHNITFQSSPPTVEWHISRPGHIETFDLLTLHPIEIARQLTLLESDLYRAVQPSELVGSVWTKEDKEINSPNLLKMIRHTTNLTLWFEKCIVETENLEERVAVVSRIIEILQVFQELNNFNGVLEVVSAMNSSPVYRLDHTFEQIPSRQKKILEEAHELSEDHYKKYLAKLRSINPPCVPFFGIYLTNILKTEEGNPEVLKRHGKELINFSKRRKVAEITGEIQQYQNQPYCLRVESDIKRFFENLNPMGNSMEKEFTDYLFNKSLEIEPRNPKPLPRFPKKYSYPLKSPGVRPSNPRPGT
T1 sequence (P20936 714-1047, further chain): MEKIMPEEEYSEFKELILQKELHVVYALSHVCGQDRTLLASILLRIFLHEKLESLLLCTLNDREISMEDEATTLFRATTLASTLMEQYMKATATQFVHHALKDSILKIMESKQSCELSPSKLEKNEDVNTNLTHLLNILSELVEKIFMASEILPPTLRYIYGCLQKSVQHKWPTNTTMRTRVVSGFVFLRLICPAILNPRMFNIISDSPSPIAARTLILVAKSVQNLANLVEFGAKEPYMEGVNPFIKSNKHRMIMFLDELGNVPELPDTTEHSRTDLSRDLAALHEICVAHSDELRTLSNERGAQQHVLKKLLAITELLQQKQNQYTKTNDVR
T1 sequence (P01116 2-188): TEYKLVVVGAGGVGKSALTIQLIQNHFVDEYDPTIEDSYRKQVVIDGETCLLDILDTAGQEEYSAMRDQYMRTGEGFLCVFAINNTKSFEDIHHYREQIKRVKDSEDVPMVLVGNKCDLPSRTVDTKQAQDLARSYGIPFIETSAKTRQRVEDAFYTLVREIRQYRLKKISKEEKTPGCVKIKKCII

For the compound `Cc1[nH]c2cc(Cl)cc(Cl)c2c1CCN` [DCAI, 2-(4,6-dichloro-2-methyl-1h-indol-3-yl)ethanamine], it took 158 ± 13 µM to reach half-maximal inhibition (IC50).

Usually IC50 stands for the concentration that inhibits the measured activity by half.
